# Measured values published in the supplement of paper PMC13380429.
# Columns and labels:
# Details in all cases: 72 h
# HepG2 [1] = assay: relative viability EC50 (midpoint between 100% and the lowest measured viability); higher = less toxic
# Calu-3 [2] = assay: as above
# Vero E6 [3] = assay: as above
# Caco-2 [4] = assay: as above
# HepG2 [5] = assay: drug sensitivity score (DSS) for viability; higher = more toxic; extreme values may be limits of the assay
# Calu-3 [6] = assay: as above
# Vero E6 [7] = assay: as above
# Caco-2 [8] = assay: as above
# HepG2 [9] = assay: cell viability relative to DMSO; higher = less toxic
# Calu-3 [10] = assay: as above
# Vero E6 [11] = assay: as above
# Caco-2 [12] = assay: as above
# U2OS [13] = assay: relative viability EC50 (midpoint between 100% and the lowest measured viability); higher = less toxic
# U2OS [14] = assay: drug sensitivity score (DSS) for viability; higher = more toxic; extreme values may be limits of the assay
# U2OS [15] = assay: cell viability relative to DMSO; higher = less toxic
structure (smiles),measurement,setting,value
CCNC(=O)[C@H]1O[C@@H](n2cnc3c(N)nc(NCCc4ccc(CCC(=O)O)cc4)nc32)[C@H](O)[C@@H]1O,relative viability EC50,HepG2 [1],> 10 µM
same,relative viability EC50,Calu-3 [2],> 10 µM
same,relative viability EC50,Vero E6 [3],> 10 µM
same,relative viability EC50,Caco-2 [4],> 10 µM
same,drug sensitivity score,HepG2 [5],0
same,drug sensitivity score,Calu-3 [6],0
same,drug sensitivity score,Vero E6 [7],0
same,drug sensitivity score,Caco-2 [8],0
same,cell viability,HepG2 [9]; 1 nM,96.2%
same,cell viability,HepG2 [9]; 10 nM,102%
same,cell viability,HepG2 [9]; 100 nM,116%
same,cell viability,HepG2 [9]; 1000 nM,97%
same,cell viability,HepG2 [9]; 10000 nM,96.7%
same,cell viability,Calu-3 [10]; 1 nM,95.7%
same,cell viability,Calu-3 [10]; 10 nM,99.2%
same,cell viability,Calu-3 [10]; 100 nM,99.5%
same,cell viability,Calu-3 [10]; 1000 nM,113%
same,cell viability,Calu-3 [10]; 10000 nM,98.9%
same,cell viability,Vero E6 [11]; 1 nM,104%
same,cell viability,Vero E6 [11]; 10 nM,109%
same,cell viability,Vero E6 [11]; 100 nM,98.8%
same,cell viability,Vero E6 [11]; 1000 nM,97.9%
same,cell viability,Vero E6 [11]; 10000 nM,95.8%
same,cell viability,Caco-2 [12]; 1 nM,99.1%
same,cell viability,Caco-2 [12]; 10 nM,101%
same,cell viability,Caco-2 [12]; 100 nM,92.1%
same,cell viability,Caco-2 [12]; 1000 nM,96.4%
same,cell viability,Caco-2 [12]; 10000 nM,97.3%
COc1ccc(-c2nc(C(=O)N3CCN(C)CC3)sc2-c2ccc(OC)cc2)cc1,relative viability EC50,HepG2 [1],> 10 µM
same,relative viability EC50,Calu-3 [2],> 10 µM
same,relative viability EC50,Vero E6 [3],> 10 µM
same,relative viability EC50,Caco-2 [4],> 10 µM
same,drug sensitivity score,HepG2 [5],0
same,drug sensitivity score,Calu-3 [6],0
same,drug sensitivity score,Vero E6 [7],0
same,drug sensitivity score,Caco-2 [8],0
same,cell viability,HepG2 [9]; 1 nM,98.7%
same,cell viability,HepG2 [9]; 10 nM,95.7%
same,cell viability,HepG2 [9]; 100 nM,104%
same,cell viability,HepG2 [9]; 1000 nM,107%
same,cell viability,HepG2 [9]; 10000 nM,98.5%
same,cell viability,Calu-3 [10]; 1 nM,97.5%
same,cell viability,Calu-3 [10]; 10 nM,101%
same,cell viability,Calu-3 [10]; 100 nM,99.7%
same,cell viability,Calu-3 [10]; 1000 nM,109%
same,cell viability,Calu-3 [10]; 10000 nM,106%
same,cell viability,Vero E6 [11]; 1 nM,107%
same,cell viability,Vero E6 [11]; 10 nM,104%
same,cell viability,Vero E6 [11]; 100 nM,102%
same,cell viability,Vero E6 [11]; 1000 nM,103%
same,cell viability,Vero E6 [11]; 10000 nM,95.6%
same,cell viability,Caco-2 [12]; 1 nM,99.2%
same,cell viability,Caco-2 [12]; 10 nM,94.6%
same,cell viability,Caco-2 [12]; 100 nM,108%
same,cell viability,Caco-2 [12]; 1000 nM,102%
same,cell viability,Caco-2 [12]; 10000 nM,102%
C[C@H](NC(=O)[C@@H](O)c1cc(F)cc(F)c1)C(=O)N[C@@H]1C(=O)N(C)c2ccccc2-c2ccccc21,relative viability EC50,HepG2 [1],> 10 µM
same,relative viability EC50,U2OS [13],> 10 µM
same,relative viability EC50,Calu-3 [2],> 10 µM
same,relative viability EC50,Caco-2 [4],> 10 µM
same,drug sensitivity score,HepG2 [5],0
same,drug sensitivity score,U2OS [14],0
same,drug sensitivity score,Calu-3 [6],0
same,drug sensitivity score,Caco-2 [8],0
same,cell viability,HepG2 [9]; 1 nM,97.1%
same,cell viability,HepG2 [9]; 10 nM,95.6%
same,cell viability,HepG2 [9]; 100 nM,102%
same,cell viability,HepG2 [9]; 1000 nM,101%
same,cell viability,HepG2 [9]; 10000 nM,88.2%
same,cell viability,U2OS [15]; 1 nM,96%
same,cell viability,U2OS [15]; 10 nM,93.9%
same,cell viability,U2OS [15]; 100 nM,94%
same,cell viability,U2OS [15]; 1000 nM,93%
same,cell viability,U2OS [15]; 10000 nM,94.7%
same,cell viability,Calu-3 [10]; 1 nM,98%
same,cell viability,Calu-3 [10]; 10 nM,87.7%
same,cell viability,Calu-3 [10]; 100 nM,97.9%
same,cell viability,Calu-3 [10]; 1000 nM,101%
same,cell viability,Calu-3 [10]; 10000 nM,100%
same,cell viability,Caco-2 [12]; 1 nM,101%
same,cell viability,Caco-2 [12]; 10 nM,89.2%
same,cell viability,Caco-2 [12]; 100 nM,101%
same,cell viability,Caco-2 [12]; 1000 nM,86%
same,cell viability,Caco-2 [12]; 10000 nM,91.3%
Cc1ccc(/C=C2\CNC/C(=C\c3ccc(C)cc3)C2=O)cc1,relative viability EC50,HepG2 [1],3.24 µM
same,relative viability EC50,U2OS [13],3 µM
same,relative viability EC50,Calu-3 [2],> 10 µM
same,relative viability EC50,Caco-2 [4],2.36 µM
same,drug sensitivity score,HepG2 [5],4.8
same,drug sensitivity score,U2OS [14],5.1
same,drug sensitivity score,Calu-3 [6],0.5
same,drug sensitivity score,Vero E6 [7],2.4
same,drug sensitivity score,Caco-2 [8],4.3
same,cell viability,HepG2 [9]; 1 nM,119%
same,cell viability,HepG2 [9]; 10 nM,99.2%
same,cell viability,HepG2 [9]; 100 nM,110%
same,cell viability,HepG2 [9]; 1000 nM,101%
same,cell viability,HepG2 [9]; 10000 nM,12.4%
same,cell viability,U2OS [15]; 1 nM,105%
same,cell viability,U2OS [15]; 10 nM,106%
same,cell viability,U2OS [15]; 100 nM,101%
same,cell viability,U2OS [15]; 1000 nM,98%
same,cell viability,U2OS [15]; 10000 nM,13.4%
same,cell viability,Calu-3 [10]; 1 nM,92.7%
same,cell viability,Calu-3 [10]; 10 nM,112%
same,cell viability,Calu-3 [10]; 100 nM,105%
same,cell viability,Calu-3 [10]; 1000 nM,104%
same,cell viability,Calu-3 [10]; 10000 nM,79%
same,cell viability,Vero E6 [11]; 1 nM,101%
same,cell viability,Vero E6 [11]; 10 nM,97.9%
same,cell viability,Vero E6 [11]; 100 nM,104%
same,cell viability,Vero E6 [11]; 1000 nM,103%
same,cell viability,Vero E6 [11]; 10000 nM,50.2%
same,cell viability,Caco-2 [12]; 1 nM,103%
same,cell viability,Caco-2 [12]; 10 nM,98.6%
same,cell viability,Caco-2 [12]; 100 nM,94%
same,cell viability,Caco-2 [12]; 1000 nM,94.1%
same,cell viability,Caco-2 [12]; 10000 nM,38.8%
Cc1ccc2c(c1)C1(CCN(CCc3nc(-c4ccccc4)oc3C)CC1)OC(=O)N2,relative viability EC50,HepG2 [1],> 10 µM
same,relative viability EC50,U2OS [13],> 10 µM
same,relative viability EC50,Calu-3 [2],> 10 µM
same,relative viability EC50,Caco-2 [4],> 10 µM
same,drug sensitivity score,HepG2 [5],1.6
same,drug sensitivity score,U2OS [14],0
same,drug sensitivity score,Calu-3 [6],0.4
same,drug sensitivity score,Vero E6 [7],1.8
same,drug sensitivity score,Caco-2 [8],0
same,cell viability,HepG2 [9]; 1 nM,101%
same,cell viability,HepG2 [9]; 10 nM,96%
same,cell viability,HepG2 [9]; 100 nM,96.7%
same,cell viability,HepG2 [9]; 1000 nM,95.3%
same,cell viability,HepG2 [9]; 10000 nM,75.4%
same,cell viability,U2OS [15]; 1 nM,98.5%
same,cell viability,U2OS [15]; 10 nM,96.5%
same,cell viability,U2OS [15]; 100 nM,96.3%
same,cell viability,U2OS [15]; 1000 nM,94%
same,cell viability,U2OS [15]; 10000 nM,88.8%
same,cell viability,Calu-3 [10]; 1 nM,94.9%
same,cell viability,Calu-3 [10]; 10 nM,103%
same,cell viability,Calu-3 [10]; 100 nM,98.1%
same,cell viability,Calu-3 [10]; 1000 nM,98%
same,cell viability,Calu-3 [10]; 10000 nM,85.3%
same,cell viability,Vero E6 [11]; 1 nM,92.9%
same,cell viability,Vero E6 [11]; 10 nM,101%
same,cell viability,Vero E6 [11]; 100 nM,96.4%
same,cell viability,Vero E6 [11]; 1000 nM,94.4%
same,cell viability,Vero E6 [11]; 10000 nM,74.1%
same,cell viability,Caco-2 [12]; 1 nM,97%
same,cell viability,Caco-2 [12]; 10 nM,91.7%
same,cell viability,Caco-2 [12]; 100 nM,93.3%
same,cell viability,Caco-2 [12]; 1000 nM,94.4%
same,cell viability,Caco-2 [12]; 10000 nM,87.7%
Cn1c(N2CCCCS2(=O)=O)nc(C(=O)NCc2ccc(F)cc2)c(O)c1=O,relative viability EC50,HepG2 [1],3.68 µM
same,relative viability EC50,Calu-3 [2],> 10 µM
same,relative viability EC50,Vero E6 [3],> 10 µM
same,relative viability EC50,Caco-2 [4],> 10 µM
same,drug sensitivity score,HepG2 [5],2.4
same,drug sensitivity score,U2OS [14],3.4
same,drug sensitivity score,Calu-3 [6],0
same,drug sensitivity score,Vero E6 [7],0.1
same,drug sensitivity score,Caco-2 [8],0
same,cell viability,HepG2 [9]; 1 nM,103%
same,cell viability,HepG2 [9]; 10 nM,96.9%
same,cell viability,HepG2 [9]; 100 nM,105%
same,cell viability,HepG2 [9]; 1000 nM,106%
same,cell viability,HepG2 [9]; 10000 nM,46.9%
same,cell viability,U2OS [15]; 1 nM,94.3%
same,cell viability,U2OS [15]; 10 nM,100%
same,cell viability,U2OS [15]; 100 nM,94.5%
same,cell viability,U2OS [15]; 1000 nM,93.7%
same,cell viability,U2OS [15]; 10000 nM,54.9%
same,cell viability,Calu-3 [10]; 1 nM,98.4%
same,cell viability,Calu-3 [10]; 10 nM,89.8%
same,cell viability,Calu-3 [10]; 100 nM,95.6%
same,cell viability,Calu-3 [10]; 1000 nM,102%
same,cell viability,Calu-3 [10]; 10000 nM,97.4%
same,cell viability,Vero E6 [11]; 1 nM,103%
same,cell viability,Vero E6 [11]; 10 nM,96.6%
same,cell viability,Vero E6 [11]; 100 nM,100%
same,cell viability,Vero E6 [11]; 1000 nM,102%
same,cell viability,Vero E6 [11]; 10000 nM,85.4%
same,cell viability,Caco-2 [12]; 1 nM,85.9%
same,cell viability,Caco-2 [12]; 10 nM,88.6%
same,cell viability,Caco-2 [12]; 100 nM,88.9%
same,cell viability,Caco-2 [12]; 1000 nM,92.7%
same,cell viability,Caco-2 [12]; 10000 nM,81.1%
O=C(O)c1ccc(S(=O)(=O)N(Cc2ccc(OC(F)(F)F)cc2)c2ncc(C(F)(F)F)cc2Cl)cc1,relative viability EC50,HepG2 [1],> 10 µM
same,relative viability EC50,U2OS [13],> 10 µM
same,relative viability EC50,Vero E6 [3],> 10 µM
same,relative viability EC50,Caco-2 [4],> 10 µM
same,drug sensitivity score,HepG2 [5],0
same,drug sensitivity score,U2OS [14],0
same,drug sensitivity score,Vero E6 [7],0.1
same,drug sensitivity score,Caco-2 [8],0
same,cell viability,HepG2 [9]; 1 nM,104%
same,cell viability,HepG2 [9]; 10 nM,108%
same,cell viability,HepG2 [9]; 100 nM,95.3%
same,cell viability,HepG2 [9]; 1000 nM,99.8%
same,cell viability,HepG2 [9]; 10000 nM,95.6%
same,cell viability,U2OS [15]; 1 nM,99.4%
same,cell viability,U2OS [15]; 10 nM,95.1%
same,cell viability,U2OS [15]; 100 nM,97.3%
same,cell viability,U2OS [15]; 1000 nM,96.2%
same,cell viability,U2OS [15]; 10000 nM,97.2%
same,cell viability,Vero E6 [11]; 1 nM,104%
same,cell viability,Vero E6 [11]; 10 nM,95.9%
same,cell viability,Vero E6 [11]; 100 nM,99.3%
same,cell viability,Vero E6 [11]; 1000 nM,96.5%
same,cell viability,Vero E6 [11]; 10000 nM,88.9%
same,cell viability,Caco-2 [12]; 1 nM,96.7%
same,cell viability,Caco-2 [12]; 10 nM,92.3%
same,cell viability,Caco-2 [12]; 100 nM,90.6%
same,cell viability,Caco-2 [12]; 1000 nM,96.5%
same,cell viability,Caco-2 [12]; 10000 nM,104%
